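Following 48 hours of exposure in 96-well plates, responses at five concentrations were used to interpolate endpoints linearly. The concentration for 50% growth inhibition is given as GI50.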 Calls of active or inactive are those of the source. No stated cut-off is given here; in the data, active = GI50 up to about 1.1 µM and inactive = higher.
Tests used:
Experiment in all cases: NCI tumour cell line growth inhibition, 48 h
A549 = tested on: A549
CAKI-1 = tested on: CAKI-1
COLO 205 = tested on: COLO 205
DU-145 = tested on: DU-145
HOP-62 = tested on: HOP-62
KM12 = tested on: KM12
LOX IMVI = tested on: LOX IMVI
M14 = tested on: M14
Malme-3M = tested on: Malme-3M
NCI-H460 = tested on: NCI-H460
OVCAR-4 = tested on: OVCAR-4
SF-268 = tested on: SF-268
SK-MEL-5 = tested on: SK-MEL-5
SK-OV-3 = tested on: SK-OV-3
SN12C = tested on: SN12C
SR = tested on: SR
U-251 = tested on: U-251
UACC-62 = tested on: UACC-62
MDA-MB-231 = tested on: MDA-MB-231

| SMILES | GI50 (A549) | GI50 (CAKI-1) | GI50 (COLO 205) | GI50 (DU-145) | GI50 (HOP-62) | GI50 (KM12) | GI50 (LOX IMVI) | GI50 (M14) | GI50 (Malme-3M) | GI50 (NCI-H460) | GI50 (OVCAR-4) | GI50 (SF-268) | GI50 (SK-MEL-5) | GI50 (SK-OV-3) | GI50 (SN12C) | GI50 (SR) | GI50 (U-251) | GI50 (UACC-62) | GI50 (MDA-MB-231) |
| --- | --- | --- | --- | --- | --- | --- | --- | --- | --- | --- | --- | --- | --- | --- | --- | --- | --- | --- | --- |
| COc1ccc(/C=C/c2ccnc3ccccc23)cc1 | 15.4 µM (inactive) | 17.7 µM (inactive) | 16.8 µM (inactive) | 14.8 µM (inactive) | 20.5 µM (inactive) | 16.5 µM (inactive) | 16.5 µM (inactive) | 17.3 µM (inactive) | 16.7 µM (inactive) | 23.6 µM (inactive) | 3.03 µM (inactive) | 15.2 µM (inactive) | 14.3 µM (inactive) | 19.1 µM (inactive) | 18.6 µM (inactive) | 29.3 µM (inactive) | 17.1 µM (inactive) | 15.7 µM (inactive) |  |
| CC(C(O)c1ccccc1)[N+](=O)[O-] (stereo unspecified) | 17.7 µM (inactive) | 14.2 µM (inactive) | 22.4 µM (inactive) | 12.7 µM (inactive) | 25.3 µM (inactive) | 19.4 µM (inactive) | 2.29 µM (inactive) | 6.43 µM (inactive) | 21.7 µM (inactive) | 35.2 µM (inactive) | 24.7 µM (inactive) | 31.5 µM (inactive) | 17.9 µM (inactive) |  | 18.1 µM (inactive) | 2.68 µM (inactive) | 16.6 µM (inactive) | 20.2 µM (inactive) | 26.5 µM (inactive) |
| Cc1cc(S(=O)(=O)O)c(NC(=O)C(=O)C2C=CCS2(=O)=O)cc1Cl (stereo unspecified) | > 100 µM (inactive) | > 100 µM (inactive) | > 100 µM (inactive) |  | > 100 µM (inactive) | > 100 µM (inactive) | > 100 µM (inactive) | > 100 µM (inactive) | > 100 µM (inactive) | > 100 µM (inactive) | > 100 µM (inactive) | > 100 µM (inactive) | > 100 µM (inactive) | > 100 µM (inactive) | > 100 µM (inactive) | > 100 µM (inactive) | > 100 µM (inactive) | > 100 µM (inactive) |  |
| COc1cc2c(c(OC(C)=O)c1OC(C)=O)-c1ccc(SC)c(=O)cc1C(NC(C)=O)CC2 (stereo unspecified) | 3.73 µM (inactive) | 11.2 µM (inactive) | 0.998 µM (active) |  | 7.59 µM (inactive) | 0.544 µM (active) | 1.13 µM (inactive) | 2.96 µM (inactive) | 1.34 µM (inactive) | 3.15 µM (inactive) | 9.82 µM (inactive) | 1.38 µM (inactive) | 0.631 µM (active) | > 19.5 µM (inactive) | 4.52 µM (inactive) | 0.964 µM (active) | 2.49 µM (inactive) | 1.12 µM (inactive) |  |
| [O-][S+]1c2ccccc2SCSc2ccccc21 | > 100 µM (inactive) | > 100 µM (inactive) | > 100 µM (inactive) | > 100 µM (inactive) | > 100 µM (inactive) | > 100 µM (inactive) |  | > 100 µM (inactive) | > 100 µM (inactive) | > 100 µM (inactive) | > 100 µM (inactive) | > 100 µM (inactive) | 76.6 µM (inactive) | > 100 µM (inactive) | > 100 µM (inactive) | 46.2 µM (inactive) | > 100 µM (inactive) | > 100 µM (inactive) | > 100 µM (inactive) |
| CCCCCCCCCCCCCCCC1(OC)C[N+](C)(C)CCO1 (stereo unspecified) | 1.7 µM (inactive) | 1.4 µM (inactive) | 1.31 µM (inactive) | 2.35 µM (inactive) | 1.61 µM (inactive) | 0.586 µM (active) | 1.26 µM (inactive) | 1.65 µM (inactive) | 2.18 µM (inactive) | 2.09 µM (inactive) | 1.02 µM (active) | 2.08 µM (inactive) | 1.9 µM (inactive) | 4.89 µM (inactive) | 1.66 µM (inactive) | 2.25 µM (inactive) | 1.6 µM (inactive) | 2.76 µM (inactive) | 1.75 µM (inactive) |
| CC(C)(C)CC(C)(C)N/C(N)=N/O | > 100 µM (inactive) | > 100 µM (inactive) | > 100 µM (inactive) | > 100 µM (inactive) | > 100 µM (inactive) | > 100 µM (inactive) | > 100 µM (inactive) | > 100 µM (inactive) | > 100 µM (inactive) | > 83.2 µM (inactive) | > 37.4 µM (inactive) | > 89.3 µM (inactive) | 51.8 µM (inactive) | 24.1 µM (inactive) | > 100 µM (inactive) | > 81.5 µM (inactive) | > 100 µM (inactive) | > 100 µM (inactive) | > 100 µM (inactive) |

— ChEMBL document CHEMBL1201862, “PubChem BioAssay data set” (2004)
